Tests used:
Format in all cases: in vivo, mouse
biotinidase gene (Btd) = assay: Expression of biotinidase gene in small intestine after running exercise (GeneChip array); settings: feed with 2 wt % for 7 days, 4 hr running, small intestine 1 hr after running; compared to Ex group; P<0.01
Text: (§1) 7-Week-old male CD2F1 mice (CHARLES RIVER LABORATORIES JAPAN, INC.) were divided into 4 groups (“Sed”, “Ex”, “Ex+Gln” and “Ex+Cys2”) (n=6/group), Sed group and Ex group were made to ingest a standard purified feed (AIN-93G composition), Ex+Gln group was made to ingest a standard purified feed (AIN-93G composition) added with glutamine (2 wt %) by replacing casein, and Ex+Cys2 group was made to ingest a standard purified feed (AIN-93G composition) added with cystine (2 wt %) by replacing casein, each for 7 days. Thereafter, each group was fasted overnight, and Ex group, Ex+Gln group and Ex+Cys2 group were made to run in a running wheel for 4 hr (speed=10.5 m/min). Sed group was continuously fasted during the running exercise of Ex group, Ex+Gln group and Ex+Cys2 group. At 1 hr after completion of running, the small intestine was collected from the mice of each group, and total RNA was extracted using Rneasy Lipid Tissue Mini Kit (QIAGEN). GeneChip Mouse Genome 430 2.0 (3′IVT) array (Affymetrix) was used for the measurement of comprehensive gene expression. Difference in the gene expression level of each group was tested by Dunnett's test following one-way analysis of variance. […]

[1] = test system: ABC protein G8 gene (Abcg8); assay: Expression of ABC protein G8 gene in small intestine after running exercise (GeneChip array); settings: feed with 2 wt % for 7 days, 4 hr running, small intestine 1 hr after running; compared to Ex group; P<0.05
Text: as §1

aquaporin gene (Aqa3) = assay: Expression of aquaporin gene in small intestine after running exercise (GeneChip array); settings: feed with 2 wt % for 7 days, 4 hr running, small intestine 1 hr after running; compared to Ex group; P<0.01
Text: as §1

[2] = test system: scavenge receptor class B gene (Scarb1); assay: Expression of scavenge receptor class B gene in small intestine after running exercise (GeneChip array); settings: feed with 2 wt % for 7 days, 4 hr running, small intestine 1 hr after running; compared to Ex group; tendency toward significance at P<0.1
Text: as §1

[3] = test system: amino acid transporter gene (Slc7a7); assay: Expression of amino acid transporter gene in small intestine after running exercise (GeneChip array); settings: feed with 2 wt % for 7 days, 4 hr running, small intestine 1 hr after running; compared to Ex group; tendency toward significance at P=0.1
Text: as §1

[4] = test system: folic acid transporter gene (Slc46a1); assay: Expression of folic acid transporter gene in small intestine after running exercise (GeneChip array); settings: feed with 2 wt % for 7 days, 4 hr running, small intestine 1 hr after running; compared to Ex group; P<0.05
Text: as §1

[5] = test system: ABC protein G5 gene (Abcg5); assay: Expression of ABC protein G5 gene in small intestine after running exercise (GeneChip array); settings: feed with 2 wt % for 7 days, 4 hr running, small intestine 1 hr after running; compared to Ex group; P<0.05
Text: as §1

[6] = test system: peptide transporter gene (Slc15a1); assay: Expression of peptide transporter gene in small intestine after running exercise (GeneChip array); settings: feed with 2 wt % for 7 days, 4 hr running, small intestine 1 hr after running; compared to Ex group; P<0.01
Text: as §1

[7] = test system: sodium-dependent multivitamin transporter gene (Slc5a6); assay: Expression of sodium-dependent multivitamin transporter gene in small intestine after running exercise (GeneChip array); settings: feed with 2 wt % for 7 days, 4 hr running, small intestine 1 hr after running; compared to Ex group; P<0.05
Text: as §1

[8] = test system: small intestine (everted intestine sample); assay: Glucose absorption capacity of everted intestine sample without exercise (Experimental Example 3); settings: non-exercise, feed with cystine 2 wt % for 7 days, 10 mM glucose, 37° C., 90 min, Sed+Cys2 compared to Sed group
Text: 7-Week-old male CD2F1 mice (CHARLES RIVER LABORATORIES JAPAN, INC.) were divided into 2 groups (“Sed” and “Sed+Cys2”) (n=6/group), Sed group was made to ingest a standard purified feed (AIN-93G composition), and Sed+Cys2 group was made to ingest a standard purified feed (AIN-93G composition) added with cystine (2 wt %) by replacing casein, each for 7 days. Then, each group was fasted overnight, and the small intestine was collected, everted intestine samples were produced according to the method of KirK et al. (ADVANCES In Physiology Education 37 (4) 415-426 (2013), which is incorporated herein by reference in its entirety). […]
Ringer buffer containing 10 mM glucose was added to the serous membrane side and the villus side of the everted intestine sample of each group, and the sample was incubated under oxygen supply at 37° C. for 90 min. Thereafter, the everted intestine sample was taken out, and the glucose concentration of the Ringer buffer on the serous membrane side and the villus side was measured using a glucose measurement kit (“glucose CII Test Wako” (Wako Pure Chemical Industries, Ltd.)). The glucose absorption capacity of each group was calculated from the difference in the glucose concentration between the villus side and the serous membrane side. The difference in the glucose absorption capacity of each group was determined by a comparison t-test between two groups. […]

[9] = test system: sodium-dependent glucose transporter gene (SGLT1); assay: Expression of sodium-dependent glucose transporter gene in small intestine after running exercise (real-time PCR); settings: feed with cystine 2 wt % for 7 days, 4 hr running; compared to Ex group; tendency toward significance at P<0.1
Text: 7-Week-old male CD2F1 mice (CHARLES RIVER LABORATORIES JAPAN, INC.) were divided into 3 groups (“Sed”, “Ex” and “Ex+Cys2”) (n=12/group), Sed group and Ex group were made to ingest a standard purified feed (AIN-93G composition), and Ex+Cys2 group was made to ingest a standard purified feed (AIN-93G composition) added with cystine (2 wt %) by replacing casein, each for 7 days. Thereafter, each group was fasted overnight, and Ex group and Ex+Cys2 group were made to run in a running wheel for 4 hr (speed=10.5 m/min). Sed group was continuously fasted during the running exercise of Ex group and Ex+Cys2 group. Immediately after completion of running, the small intestine was collected, everted intestine samples were produced according to the method of KirK et al. (ADVANCES In Physiology Education 37 (4) 415-426 (2013), which is incorporated herein by reference in its entirety). As the everted intestine sample, a part of 8 cm below the point of 4 cm from the pyloric part was used.
Furthermore, using Rneasy Lipid Tissue Mini Kit (QIAGEN), total RNA was extracted from a part of the small intestine used for producing the everted intestine sample. QuantStudio 12K Flex Real-Time PCR System (Thermo Fisher Scientific) was used for the measurement of the expression of sodium-dependent glucose transporter gene (SGLT1). […]

[10] = test system: small intestine (everted intestine sample); assay: Glucose absorption capacity of everted intestine sample after running exercise (Experimental Example 2); settings: feed with cystine 2 wt % for 7 days, 4 hr running
Text: 7-Week-old male CD2F1 mice (CHARLES RIVER LABORATORIES JAPAN, INC.) were divided into 3 groups (“Sed”, “Ex” and “Ex+Cys2”) (n=12/group), Sed group and Ex group were made to ingest a standard purified feed (AIN-93G composition), and Ex+Cys2 group was made to ingest a standard purified feed (AIN-93G composition) added with cystine (2 wt %) by replacing casein, each for 7 days. Thereafter, each group was fasted overnight, and Ex group and Ex+Cys2 group were made to run in a running wheel for 4 hr (speed=10.5 m/min). Sed group was continuously fasted during the running exercise of Ex group and Ex+Cys2 group. […]
Ringer buffer containing 10 mM glucose was added to the serous membrane side and the villus side of the produced everted intestine sample of each group, and the sample was incubated under oxygen supply at 37° C. for 90 min. Thereafter, the everted intestine sample was taken out, and the glucose concentration of the Ringer buffer on the serous membrane side and the villus side was measured using a glucose measurement kit (“glucose CII Test Wako” (Wako Pure Chemical Industries, Ltd.)). The glucose absorption capacity of each group was calculated from the difference in the glucose concentration between the villus side and the serous membrane side. […]

expression level of biotinidase gene (mRNA level) (biotinidase gene (Btd)) | SMILES | expression level of ABC protein G8 gene (mRNA level) [1] | expression level of aquaporin gene (mRNA level) (aquaporin gene (Aqa3)) | expression level of scavenge receptor class B gene (mRNA level) [2] | expression level of amino acid transporter gene (mRNA level) [3] | expression level of folic acid transporter gene (mRNA level) [4] | expression level of ABC protein G5 gene (mRNA level) [5] | expression level of peptide transporter gene (mRNA level) [6] | expression level of sodium-dependent multivitamin transporter gene (mRNA level) [7] | glucose absorption capacity (difference in glucose concentration between villus side and serous membrane side) [8] | expression of SGLT1 (mRNA amount) [9] | glucose absorption capacity (difference in glucose concentration between villus side and serous membrane side) ([10]; 10 mM glucose, 37° C., 90 min, compared to Ex group) | glucose absorption capacity (difference in glucose concentration between villus side and serous membrane side) ([10]; Ex+Cys2 compared to Sed group (no exercise))
increased | NC(=O)CCC(N)C(=O)O (stereo not drawn) [glutamine, 2-amino-4-carbamoylbutanoic acid] | increased | increased | increased | increased | increased |  |  |  |  |  |  | 
increased | NC(CSSCC(N)C(=O)O)C(=O)O (stereo not drawn) [cystine, 3,3′-dithiobis(2-aminopropanoic acid)] |  | increased |  |  |  | increased | increased | increased | improved | tended to increase | significantly (P<0.05) improved | higher
